Several values for one entry are separate records, joined by “and”; a condition that tells them apart may be missing. Equal entries are not always repeated.
Key:
[1] = xn = mol fraction of the nth substance listed; details: 101 kPa, Liquid, x2 = 0; for viscosity: Falling or rolling sphere viscometry; for mass density: Vibrating tube method
[2] = for viscosity / mass density: 101 kPa, Liquid; for viscosity: Falling or rolling sphere viscometry; for mass density: Vibrating tube method

O [water] + CCOS(=O)(=O)[O-].CC[N+]1(C)CCCCC1
[1]
Details | mass density [kg/m3] | viscosity [mPa·s]
298.15 K | – | 0.89
303.15 K | – | 0.808
308.15 K | – | 0.74
313.15 K | 992.15 | 0.681
318.15 K | – | 0.63
323.15 K | 987.93 | 0.593
328.15 K | 985.69 | 0.56
333.15 K | 983.17 | 0.528
338.15 K | 980.3 | 0.5
343.15 K | 978.1 | 0.473

O [water] + CCOS(=O)(=O)[O-].CC[N+]1(C)CCCC1
[1]
Details | mass density [kg/m3] | viscosity [mPa·s]
313.15 K | 992.15 | 0.681
318.15 K | – | 0.63
323.15 K | 987.93 | 0.593
328.15 K | 985.69 | 0.56
333.15 K | 983.17 | 0.528
338.15 K | 980.3 | 0.519
343.15 K | 978.1 | 0.51

CCOS(=O)(=O)[O-].CC[N+]1(C)CCCCC1 [1-ethyl-1-methylpiperidinium ethyl sulfate]
[2]
Details | mass density [kg/m3] | viscosity [mPa·s]
298.15 K | 1181.33 | 1821
303.15 K | 1178.23 | 1186
308.15 K | 1175.1 | 795.7
313.15 K | 1171.79 | 549.9
318.15 K | 1168.85 | 391.8
323.15 K | 1165.73 | 285.8
328.15 K | 1162.62 | 212.6
333.15 K | 1159.54 | 162.5
338.15 K | 1156.56 | 126.1
343.15 K | 1153.58 | 99.87

O [water] + CCOS(=O)(=O)[O-].CC[N+]1(C)CCOCC1
[1]
Details | mass density [kg/m3] | viscosity [mPa·s]
298.15 K | – | 0.89
303.15 K | – | 0.808
308.15 K | – | 0.74
313.15 K | 992.15 | 0.681
318.15 K | – | 0.63
323.15 K | 987.93 | 0.593
328.15 K | 985.69 | 0.56
333.15 K | 983.17 | 0.528
338.15 K | 980.3 | 0.5
343.15 K | 978.1 | 0.473

CCOS(=O)(=O)[O-].CC[N+]1(C)CCOCC1 [4-ethyl-4-methylmorpholinium ethyl sulfate]
[2]
Details | mass density [kg/m3] | viscosity [mPa·s]
298.15 K | 1252.26 | –
303.15 K | 1249.05 | –
308.15 K | 1245.86 | –
313.15 K | 1242.67 | 2426
318.15 K | 1239.51 | 1677
323.15 K | 1236.35 | 1129
328.15 K | 1233.2 | 779.3
333.15 K | 1230.06 | 552.3
338.15 K | 1226.93 | 400.8
343.15 K | 1223.81 | 297.3

CCOS(=O)(=O)[O-].CC[N+]1(C)CCCC1 [1-ethyl-1-methylpyrrolidinium ethyl sulfate]
[2]
Details | mass density [kg/m3] | viscosity [mPa·s]
313.15 K | 1176.31 | 78.32
318.15 K | 1173.63 | 64.72
323.15 K | 1170.95 | 53.51
328.15 K | 1168.27 | 44.82
333.15 K | 1165.59 | 37.95
338.15 K | 1162.91 | 32.87
343.15 K | 1160.23 | 29.23

Details | Normal melting temperature [°C]
[2], Crystal, visual observation | 36.92

O [water]
[2]
Details | mass density [kg/m3] | viscosity
298.15 K | – | 0.89 mPa·s
303.15 K | – | 0.808 mPa·s
308.15 K | – | 0.74 mPa·s
313.15 K | 992.15 | 0.681 mPa·s
318.15 K | – | 0.63 mPa·s
323.15 K | 987.93 | 0.593 mPa·s
328.15 K | 985.69 | 0.56 mPa·s
333.15 K | 983.17 | 0.528 mPa·s
338.15 K | 980.3 | 0.519 mPa·s and 0.5 mPa·s
343.15 K | 978.1 | 0.51 mPa·s and 0.473 mPa·s
